Entries after “also recorded” stand apart in the source; their conditions may differ.
Tests used:
[1] = test system: N27 cells; assay: Cytotoxicity (LDH) assay after PFF exposure; type: cell-based, rat; settings: N27 cells, PFF treatment; compared to PFF only control
Protocol: Cytotoxicity Assay. The lactate dehydrogenase (LDH) is a cytosolic enzyme that is released into the media during cellular stress and increased levels of cytotoxicity. The cytotoxicity assay was measured using reagents from the Pierce LDH Cytotoxicity Assay Kit (88954, Thermo). For the assay, 50 μL of media from each well after PFF exposure, followed by SENP-1 treatment, was put into wells of a new 96-well plate. The LDH reagents were prepared according to the protocol provided, and 50 μL of the LDH reagent was mixed into each well. The total 100 μL of media containing LDH and its reagent were incubated at 37° C. for 30 min, followed by the application of a stop solution. The mixture was analyzed using a spectrophotometer (SpectraMax M5e, Molecular devices) at 490 nm with a reference wavelength of 680 nm.
In this study, numerous commercially available SENP-1 inhibitors were tested for the recovery effects from preformed fibrils of alpha-synuclein (PFF)-induced PD models in vitro. The screening process includes several SENP-1 inhibitors, including specific SENP-1 inhibitors (e.g., SUMO-2 Aldehyde, Momordin lc, streptonigrin, hinokiflavonem, and siRNAs of SENP-1) and nonspecific SENP-1 inhibitors (e.g., oleanolic acid, gallic acid), in N27 dopaminergic cells after the exposure of PFF for 24 hrs.

[2] = test system: N27 cells; assay: Cell viability (MTT) assay after PFF exposure; type: cell-based, rat; settings: N27 cells after PFF (1 μg/ml) exposure for 24 h; compared to PFF only control
Source text: Cell Viability Assay. The MTT assay is a colorimetric assay that is based on the conversion of water-soluble MTT (3-(4,5-dimethylthiazol-2-yl)-2,5-diphenyltetrazolium bromide) into formazan crystal by mitochondrial dehydrogenase enzymes, soluble in 100% DMSO. The resulting solution is purple in color, and the color intensity is proportional to the viable cells for each well in a 96-well plate. A variety of SENP-1 inhibitors, such as SUMO-2 aldehyde, Momordin lc, streptonigrin, hinokiflavone, oleanolic acid and siRNA of SENP-1, were treated in N27 cells after PFF (1 μg/ml) exposure for 24 h. After adding 5 mM MTT dye to cells, the color intensity in MTT assays was measured using a spectrophotometer (SpectraMax M5e, Molecular devices, Dover, USA), at 570 nm with a reference wavelength of 630 nm. The cells were incubated with the MTT reagent (ab211091, Abcam) at 37° C. for 3 h, followed by solubilizing the formazan crystals in solution.
In this study, numerous commercially available SENP-1 inhibitors were tested for the recovery effects from preformed fibrils of alpha-synuclein (PFF)-induced PD models in vitro. […]

[3] = test system: PFF-injected old mice; assay: Nesting in PFF-injected mice; type: in vivo, mouse; settings: 10 and/or 50 mg/kg oral, vs PFF only
Protocol: (§1) A mouse model of Parkinson's disease is C57BL/6 male or female mice (50% each) injected with 5 μg of mouse PFF at 12 months old, followed by a treatment below for 6-7 weeks: • 1) without PFF injection, followed by vehicle (control, n=7); • 2) PFF injection, followed by vehicle (PFF only: control, n=8); • 3) PFF injection, followed by daily 10 mg/kg Momordin gavage (n=7-8); • 4) PFF injection, followed by daily 50 mg/kg Momordin gavage (n=7-8).
Nesting. A 5×5 cm cotton nesting patch was placed in a clean cage housing a single animal. On the following day, pictures were taken of the condition of the nesting material utilized and analyzed in a blind manner. The ability of an animal to tear up the cotton nesting material and build a nest dictates the activity and motor coordination levels of the animal. Three dimensionally built nest was given as 5 points as the highest score, and a barely touched nesting patch was considered a low score of 1 point. The points were represented on the graph to show any improvement in nesting capabilities across the groups.

[4] = test system: phosphorylated Ser-129-α-synuclein; assay: Immunohistochemistry of phosphorylated Ser-129-α-synuclein in brain sections of PFF-injected mice; type: in vivo, mouse
[5] = test system: SUMO-1 conjugated α-synuclein; assay: Western blot of SUMO-1 conjugated α-synuclein in α-synuclein IP tissue samples; type: in vivo, mouse; settings: PFF-injected mice, vs PFF only
Protocol: A) In Western blots, Momordin reversed the toxicity from PFF injection in reducing phospho-α-synuclein and SENP-1 on α-synuclein in the MB and STR. […] A pathological marker, phosphorylated α-synuclein was increased by PFF injection, which was reversed by Momordin treatment in the MB (F) and the STR (G).
as §1

[6] = both 10 and 50 mg/kg oral, PFF-injected mice, vs PFF only

CC1(C)CC[C@]2(C(=O)O)CC[C@]3(C)C(=CC[C@@H]4[C@@]5(C)CC[C@H](O[C@@H]6O[C@H](C(=O)O)[C@@H](O)[C@H](O[C@@H]7OC[C@@H](O)[C@H](O)[C@H]7O)[C@H]6O)C(C)(C)[C@@H]5CC[C@]43C)[C@@H]2C1 [Momordin lc]
cytotoxicity derived from PFF (LDH assay) [1]: significantly reduced the cytotoxicity | cell viability from PFF-mediated toxicity (MTT assay) [2]: significantly enhanced the cell viability | nesting [3]: improves the nesting | accumulation of phosphorylated alpha-synuclein in multiple brain regions ([4]; 10 or 50 mg/kg oral for 6-7 weeks, 15-16 month-old mice, 3-4 months after PFF injection): sufficient to prevent the accumulation; also recorded: effective to prevent the accumulation | level of phospho-α-synuclein in the SNc (IHC) [4, 6]: significantly reduced | level of phospho-α-synuclein in the striatum (IHC) [4, 6]: significantly reduced | SUMO-1 conjugated α-synuclein in the MB (α-synuclein IP) ([5]; midbrain): increase in SUMO-1 conjugated α-synuclein | SUMO-1 conjugated α-synuclein in the STR (α-synuclein IP) ([5]; striatum): increase in SUMO-1 conjugated α-synuclein

From patent US20260021167A1, “COMPOSITIONS AND METHODS FOR TREATING OR PREVENTING NEURODEGENERATIVE DISEASES” (Delaware State University, priority 2022, published 2026)
